From patent US9522886B2, “Pyridine derivatives” (Hoffmann-La Roche Inc., priority 2012, dated 2016)
pEC50: −log10 of the molar value. Like-named read-outs stand apart in the source and are kept apart here.

Columns and labels:
human CB1 receptors = human CB1 receptors (Homo sapiens (Human), UniProt P21554); assay: cAMP assay, CHO cells expressing human CB1 receptors; format: cell-based
Method: (§1) CHO cells expressing human CB1 or CB2 receptors are seeded 17-24 hours prior to the experiment 50.000 cells per well in a black 96 well plate with flat clear bottom (Corning Costar #3904) in DMEM (Invitrogen No. 31331), 1×HT supplement, with 10% fetal calf serum and incubated at 5% CO2 and 37° C. in a humidified incubator. The growth medium was exchanged with Krebs Ringer Bicarbonate buffer with 1 mM IBMX and incubated at 30° C. for 30 min. Compounds were added to a final assay volume of 100 μl and incubated for 30 min at 30° C. Using the cAMP-Nano-TRF detection kit the assay (Roche Diagnostics) was stopped by the addition of 50 μl lysis reagent (Tris, NaCl, 1.5% Triton X100, 2.5% NP40, 10% NaN3) and 50 μl detection solutions (20 μM mAb Alexa700-cAMP 1:1, and 48 μM Ruthenium-2-AHA-cAMP) and shaken for 2 h at room temperature. The time-resolved energy transfer is measured by a TRF reader (Evotec Technologies GmbH), equipped with a ND:YAG laser as excitation source. The plate is measured twice with the excitation at 355 nm and at the emission with a delay of 100 ns and a gate of 100 ns, total exposure time 10 s at 730 (bandwidth 30 nm) or 645 nm (bandwidth 75 nm), respectively.
(§2) EC50 values were determined using Activity Base analysis (ID Business Solution, Limited).

human CB2 receptors = human CB2 receptors (Homo sapiens (Human), UniProt P34972); assay: cAMP assay, CHO cells expressing human CB2 receptors; format: cell-based
Method: as §1, §2

[1] = functional cAMP assay, CHO cells expressing human CB1, read-out: human CB1 EC50
[2] = functional cAMP assay, CHO cells expressing human CB2, read-out: human CB2 EC50

Chain of human CB1 receptors (P21554 whole entry): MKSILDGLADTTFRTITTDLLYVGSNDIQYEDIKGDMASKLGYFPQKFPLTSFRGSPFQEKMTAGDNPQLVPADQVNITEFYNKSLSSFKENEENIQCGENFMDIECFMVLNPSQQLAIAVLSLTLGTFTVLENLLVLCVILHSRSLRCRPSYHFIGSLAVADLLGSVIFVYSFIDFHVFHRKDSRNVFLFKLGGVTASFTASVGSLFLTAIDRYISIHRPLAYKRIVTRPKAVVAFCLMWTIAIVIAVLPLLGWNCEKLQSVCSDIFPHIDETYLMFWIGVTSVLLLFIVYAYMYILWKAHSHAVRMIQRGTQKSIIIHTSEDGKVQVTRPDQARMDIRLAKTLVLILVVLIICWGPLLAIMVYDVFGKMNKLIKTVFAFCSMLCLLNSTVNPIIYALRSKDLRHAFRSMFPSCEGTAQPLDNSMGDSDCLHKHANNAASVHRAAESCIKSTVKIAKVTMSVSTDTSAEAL
Chain of human CB2 receptors (P34972 whole entry): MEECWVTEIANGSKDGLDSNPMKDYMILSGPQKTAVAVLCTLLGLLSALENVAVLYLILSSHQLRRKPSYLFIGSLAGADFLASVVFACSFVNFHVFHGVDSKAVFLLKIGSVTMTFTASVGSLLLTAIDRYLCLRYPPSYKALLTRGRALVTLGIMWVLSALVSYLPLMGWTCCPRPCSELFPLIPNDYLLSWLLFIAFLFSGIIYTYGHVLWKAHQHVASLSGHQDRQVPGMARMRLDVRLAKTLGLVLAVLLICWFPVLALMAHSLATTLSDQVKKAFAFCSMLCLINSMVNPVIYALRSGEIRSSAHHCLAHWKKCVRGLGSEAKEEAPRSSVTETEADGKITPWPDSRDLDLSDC

`NC(=O)CC1(NC(=O)c2cccc(-c3ccc(F)c(Cl)c3)n2)CS(=O)(=O)C1` [Example 79, N-[3-(2-Amino-2-oxoethyl)-1,1-dioxothietan-3-yl]-6-(3-chloro-4-fluorophenyl)pyridine-2-carboxamide] was tested, and the pEC50 (human CB1 receptors; [1]) was < 5.00 and the pEC50 (human CB2 receptors; [2]) was 7.13.

In the case of `CC(Oc1nc(C(=O)NC2(CC(N)=O)COC2)ccc1C1CC1)C(F)(F)F` (centres unmarked) [Example 33, 5-Cyclopropyl-6-(2,2,2-trifluoro-1-methyl-ethoxy)-pyridine-2-carboxylic acid (3-carbamoylmethyl-oxetan-3-yl)-amide], the pEC50 (human CB1 receptors; [1]) was < 5.00 and the pEC50 (human CB2 receptors; [2]) was 6.84.

For `NC(=O)CC1(NC(=O)c2ccc(C3CC3)c(OCC3CC3)n2)CSC1` [Example 96, N-[3-(2-Amino-2-oxoethyl)thietan-3-yl]-5-cyclopropyl-6-(cyclopropylmethoxy)pyridine-2-carboxamide], the pEC50 (human CB1 receptors; [1]) was < 5.00 and the pEC50 (human CB2 receptors; [2]) was 8.74.

`CC(C)C[C@H](CC(N)=O)NC(=O)c1ccc(C2CC2)c(OCC2CC2)n1` [Example 25, (+)-5-Cyclopropyl-6-cyclopropylmethoxy-pyridine-2-carboxylic acid (1-carbamoylmethyl-3-methyl-butyl)-amide] was tested, and the pEC50 (human CB1 receptors; [1]) was < 5.00 and the pEC50 (human CB2 receptors; [2]) was 8.37.

With `NC(=O)CC1(NC(=O)c2ccc(N3CC(F)(F)C3)c(OCC3CC3)n2)CCN(C(=O)OCc2ccccc2)C1` (centres unmarked) [Example 83, Benzyl 3-(2-amino-2-oxoethyl)-3-[[6-(cyclopropylmethoxy)-5-(3,3-difluoroazetidin-1-yl)pyridine-2-carbonyl]amino]pyrrolidine-1-carboxylate] the pEC50 (human CB1 receptors; [1]) was < 5.00 and the pEC50 (human CB2 receptors; [2]) was 5.88.

In the case of `NC(=O)CC1(NC(=O)c2ccc(N3CC(F)(F)C3)c(OCC3CC3)n2)CCNCC1` [Example 85, N-[4-(2-Amino-2-oxoethyl)piperidin-4-yl]-6-(cyclopropylmethoxy)-5-(3,3-difluoroazetidin-1-yl)pyridine-2-carboxamide], the pEC50 (human CB1 receptors; [1]) was < 5.00 and the pEC50 (human CB2 receptors; [2]) was 6.57.

`NC(=O)CC1(NC(=O)c2ccc(C(F)(F)F)c(OCC3CCOCC3)n2)CS(=O)(=O)C1` [Example 78, N-[3-(2-Amino-2-oxoethyl)-1,1-dioxothietan-3-yl]-6-(oxan-4-ylmethoxy)-5-(trifluoromethyl)pyridine-2-carboxamide] was tested, and the pEC50 (human CB1 receptors; [1]) was < 5.00 and the pEC50 (human CB2 receptors; [2]) was 7.39.

Compound `NC(=O)CC1(NC(=O)c2ccc(C3CC3)c(Cc3ccc(F)cc3)n2)CCOC1` (centres unmarked) [Example 87, N-[3-(2-Amino-2-oxoethyl)oxolan-3-yl]-5-cyclopropyl-6-[(4-fluorophenyl)methyl]pyridine-2-carboxamide] has a pEC50 (human CB1 receptors) of 7.46 and a pEC50 (human CB2 receptors) of 9.52.

`NC(=O)CC(NC(=O)c1ccc(C2CC2)c(OCC2CC2)n1)C1CCCCC1` (single isomer, unassigned; (+)) [Example 18, (+)-5-Cyclopropyl-6-cyclopropylmethoxy-pyridine-2-carboxylic acid (2-carbamoyl-1-cyclohexyl-ethyl)-amide] was tested, and the pEC50 (human CB1 receptors; [1]) was < 5.00 and the pEC50 (human CB2 receptors; [2]) was 8.82.

For `CCOC(=O)CC(CC(C)C)NC(=O)c1ccc(C2CC2)c(OCC2CC2)n1` (centres unmarked) [Example 22, 3-[(5-Cyclopropyl-6-cyclopropylmethoxy-pyridine-2-carbonyl)-amino]-5-methyl-hexanoic acid ethyl ester], the pEC50 (human CB1 receptors; [1]) was < 5.00 and the pEC50 (human CB2 receptors; [2]) was 7.92.

In the case of `NC(=O)CC1(NC(=O)c2ccc(C3CC3)c(OCC3CC3)n2)CCOC1` (centres unmarked) [Example 88, N-[3-(2-Amino-2-oxoethyl)oxolan-3-yl]-5-cyclopropyl-6-(cyclopropylmethoxy)pyridine-2-carboxamide], the pEC50 (human CB1 receptors; [1]) was < 5.00 and the pEC50 (human CB2 receptors; [2]) was 8.70.

With `NC(=O)CC1(NC(=O)c2ccc(N3CC(F)(F)C3)c(OCC3CC3)n2)CCC1` [Example 70, N-[1-(2-Amino-2-oxoethyl)cyclobutyl]-6-(cyclopropylmethoxy)-5-(3,3-difluoroazetidin-1-yl)pyridine-2-carboxamide] the pEC50 (human CB1 receptors; [1]) was < 5.00 and the pEC50 (human CB2 receptors; [2]) was 9.22.

For `CCOC(=O)CC1(NC(=O)c2ccc(N3CC(F)(F)C3)c(OCC3CC3)n2)CS(=O)(=O)C1` [Example 51, (3-{[6-Cyclopropylmethoxy-5-(3,3-difluoro-azetidin-1-yl)-pyridine-2-carbonyl]-amino}-1,1-dioxo-1λ6-thietan-3-yl)-acetic acid ethyl ester], the pEC50 (human CB1 receptors; [1]) was < 5.00 and the pEC50 (human CB2 receptors; [2]) was 7.24.

With `COC(=O)CC1(NC(=O)c2ccc(N3CC(F)(F)C3)c(OCC3CC3)n2)CCOCC1` [Example 52, (4-{[6-Cyclopropylmethoxy-5-(3,3-difluoro-azetidin-1-yl)-pyridine-2-carbonyl]-amino}-tetrahydro-pyran-4-yl)-acetic acid methyl ester] the pEC50 (human CB1 receptors; [1]) was < 5.00 and the pEC50 (human CB2 receptors; [2]) was 7.13.

For `NC(=O)CC1(NC(=O)c2ccc(C3CC3)c(OCC3CC3)n2)COC1` [Example 23, 5-Cyclopropyl-6-cyclopropylmethoxy-pyridine-2-carboxylic acid (3-carbamoylmethyl-oxetan-3-yl)-amide], the pEC50 (human CB1 receptors; [1]) was < 5.00 and the pEC50 (human CB2 receptors; [2]) was 8.85.

In the case of `COC(=O)CC1(NC(=O)c2ccc(N3CC(F)(F)C3)c(OCC3CC3)n2)CCC1` [Example 68, Methyl 2-[1-[[6-(cyclopropylmethoxy)-5-(3,3-difluoroazetidin-1-yl)pyridine-2-carbonyl]amino]cyclobutyl]acetate], the pEC50 (human CB1 receptors; [1]) was < 5.00 and the pEC50 (human CB2 receptors; [2]) was 8.96.

For `NC(=O)CC1(NC(=O)c2ccc(C3(O)CCC3)c(OCC3CC3)n2)COC1` [Example 90, N-[3-(2-Amino-2-oxoethyl)oxetan-3-yl]-6-(cyclopropylmethoxy)-5-(1-hydroxycyclobutyl)pyridine-2-carboxamide], the pEC50 (human CB1 receptors; [1]) was < 5.00 and the pEC50 (human CB2 receptors; [2]) was 8.06.

`CN(C)C(=O)CC1(NC(=O)c2ccc(C3CC3)c(OCC3CC3)n2)COC1` [Example 40, 5-Cyclopropyl-6-cyclopropylmethoxy-pyridine-2-carboxylic acid (3-dimethylcarbamoylmethyl-oxetan-3-yl)-amide] was tested, and the pEC50 (human CB1 receptors; [1]) was < 5.00 and the pEC50 (human CB2 receptors; [2]) was 6.46.

`NC(=O)[C@@H]1CCCC[C@@H]1NC(=O)c1ccc(N2CC(F)(F)C2)c(OCC2CC2)n1` (stereo in doubt) [Example 20, (+)-cis-6-Cyclopropylmethoxy-5-(3,3-difluoro-azetidin-1-yl)-pyridine-2-carboxylic acid (2-carbamoyl-cyclohexyl)-amide] was tested, and the pEC50 (human CB1 receptors; [1]) was < 5.00 and the pEC50 (human CB2 receptors; [2]) was 7.80.

`CC(C)(C)[C@@H](CC(N)=O)NC(=O)c1ccc(C2CC2)c(OCC2CC2)n1` [Example 29, 5-Cyclopropyl-6-cyclopropylmethoxy-pyridine-2-carboxylic acid ((R)-1-carbamoylmethyl-2,2-dimethyl-propyl)-amide] was tested, and the pEC50 (human CB1 receptors; [1]) was < 5.00 and the pEC50 (human CB2 receptors; [2]) was 7.63.

With `CCOC(=O)CC1(NC(=O)c2ccc(C3CC3)c(OCC3CC3)n2)COC1` [Example 1, {3-[(5-Cyclopropyl-6-cyclopropylmethoxy-pyridine-2-carbonyl)-amino]-oxetan-3-yl}-acetic acid ethyl ester] the pEC50 (human CB1 receptors; [1]) was < 5.00 and the pEC50 (human CB2 receptors; [2]) was 7.27.

With `NC(=O)CC(NC(=O)c1ccc(N2CC(F)(F)C2)c(OCC2CC2)n1)C(F)(F)F` (centres unmarked) [Example 55, 6-Cyclopropylmethoxy-5-(3,3-difluoro-azetidin-1-yl)-pyridine-2-carboxylic acid (1-carbamoylmethyl-2,2,2-trifluoro-ethyl)-amide] the pEC50 (human CB1 receptors; [1]) was < 5.00 and the pEC50 (human CB2 receptors; [2]) was 8.52.

In the case of `CC(C)[C@H](CC(N)=O)NC(=O)c1ccc(N2CC(F)(F)C2)c(OCC2CC2)n1` [Example 19, 6-Cyclopropylmethoxy-5-(3,3-difluoro-azetidin-1-yl)-pyridine-2-carboxylic acid ((S)-1-carbamoylmethyl-2-methyl-propyl)-amide], the pEC50 (human CB1 receptors; [1]) was < 5.00 and the pEC50 (human CB2 receptors; [2]) was 8.49.

In the case of `CC(C)CC(CC(=O)OC(C)(C)C)NC(=O)c1ccc(N2CC(F)(F)C2)c(OCC2CC2)n1` (centres unmarked) [Example 2, tert-Butyl 3-({[6-(cyclopropylmethoxy)-5-(3,3-difluoroazetidin-1-yl)pyridin-2-yl]carbonyl}amino)-5-methylhexanoate], the pEC50 (human CB1 receptors; [1]) was < 5.00 and the pEC50 (human CB2 receptors; [2]) was 6.17.

With `NC(=O)CC(NC(=O)c1ccc(C2CC2)c(OCC2CC2)n1)C(F)(F)F` (single isomer, unassigned; (-)) [Example 31, (−)-5-Cyclopropyl-6-cyclopropylmethoxy-pyridine-2-carboxylic acid (1-carbamoylmethyl-2,2,2-trifluoro-ethyl)-amide] the pEC50 (human CB1 receptors; [1]) was < 5.00 and the pEC50 (human CB2 receptors; [2]) was 8.06.

For `CNC(=O)CC(C)(C)NC(=O)c1ccc(N2CC(F)(F)C2)c(OCC2CC2)n1` [Example 6, 6-Cyclopropylmethoxy-5-(3,3-difluoro-azetidin-1-yl)-pyridine-2-carboxylic acid (1,1-dimethyl-2-methylcarbamoyl-ethyl)-amide], the pEC50 (human CB1 receptors; [1]) was < 5.00 and the pEC50 (human CB2 receptors; [2]) was 6.76.

`NC(=O)C[C@@H](NC(=O)c1ccc(C2CC2)c(OCC2CC2)n1)c1cccc(Cl)c1` [Example 43, 5-Cyclopropyl-6-cyclopropylmethoxy-pyridine-2-carboxylic acid [(R)-2-carbamoyl-1-(3-chloro-phenyl)-ethyl]-amide] was tested, and the pEC50 (human CB1 receptors; [1]) was < 5.00 and the pEC50 (human CB2 receptors; [2]) was 6.98.

`NC(=O)CC1(NC(=O)c2ccc(N3CC(F)(F)C3)c(OCC3CC3)n2)CCS(=O)(=O)CC1` [Example 63, N-[4-(2-Amino-2-oxoethyl)-1,1-dioxothian-4-yl]-6-(cyclopropylmethoxy)-5-(3,3-difluoroazetidin-1-yl)pyridine-2-carboxamide] was tested, and the pEC50 (human CB1 receptors; [1]) was < 5.00 and the pEC50 (human CB2 receptors; [2]) was 7.26.
